The values that follow come from US4035381A, “Antibacterial agents” (priority 1976, dated 1977).

Several values for one entry are separate records, joined by “and”; a condition that tells them apart may be missing. Equal entries are not always repeated. Structures can show the parent of a compound that is named as a salt. Where two headings read alike, the source gives them in different places.

One data set relates to E. coli A9675. The data set is described as follows: Antibiotic activity in nutrient broth (MIC), E. coli A9675. Type of data set: cell-based. The settings on record: Escherichia coli, 10^-4 dilution, Ex. 1/Ex. 2 figures recalculated on penicillin content. From the text: (§1) ANTIBIOTIC ACTIVITY IN NUTRIENT BROTH
(§2) **Dilution of overnight broth culture
(§3) +These figures were […] on the basis that there was only 60.61%
(§4) amoxicillin in the sample; in other words, the numerical values were
(§5) lowered, i.e. improved.
(§6) ----//These figures were recalculated on the basis that there was only

The test system of the next data set is K. pneumoniae A9977. The data set can be described thus: Antibiotic activity in nutrient broth (MIC), K. pneumoniae A9977. Type of data set: cell-based. Particulars: Klebsiella pneumoniae, 10^-4 dilution, Ex. 1/Ex. 2 figures recalculated on penicillin content.
From the text: as §1, §2, §3, §4, §5, §6

Data set [1] can be described thus: Mouse blood levels after intramuscular administration. The settings on record: 10 mg./kg., average of six animals, unit assumed.
Data set [2] concerns S. aureus Meth.-res. A15097. The data set is described as follows: Antibiotic activity in nutrient broth (MIC), S. aureus Meth.-res. Format: cell-based. The settings on record: Staphylococcus aureus.
Data set [3] in a line: Mouse blood levels after oral administration. Particulars: 100 mg./kg., tested twice, average of 6 mice each, listed as Ex. 2, in µg/mL (unit assumed).
A further data set has as its system Str. pneumoniae A9585. The data set is described as follows: Antibiotic activity in nutrient broth (MIC), Str. pneumoniae. Format: cell-based. The settings on record: Streptococcus pneumoniae, 45% AAB + 5% serum + 50% broth, 10^-3 dilution of overnight culture, Ex. 1/Ex. 2 figures recalculated on penicillin content.
From the text: as §1
(§7) *45% AAB + 5% serum + 50% broth
as §2, §3, §4, §5, §6

Another data set concerns Ent. cloacae A9657. The data set can be described thus: Antibiotic activity in nutrient broth (MIC), Ent. cloacae A9657. Format: cell-based. The settings on record: Enterobacter cloacae, 10^-4 dilution, Ex. 1/Ex. 2 figures recalculated on penicillin content.
The test system of another data set is Ent. cloacae A9656. The data set can be described thus: Antibiotic activity in nutrient broth (MIC), Ent. cloacae A9656. Type of data set: cell-based. The settings on record: Enterobacter cloacae, 10^-4 dilution, Ex. 1/Ex. 2 figures recalculated on penicillin content.
The subject of another data set is S. aureus bx 1633 A9606. The data set can be described thus: Antibiotic activity in nutrient broth (MIC), S. aureus bx 1633. Format: cell-based. The settings on record: Ex. 1/Ex. 2 figures recalculated on penicillin content.
For the next data set, the system named is Ps. aeruginosa A9843A. The data set can be described thus: Antibiotic activity in nutrient broth (MIC), Ps. aeruginosa. The settings on record: Pseudomonas aeruginosa. Type of data set: cell-based.
A short description of data set [4]: Hydrolysis to parent penicillin (paper strip and liquid chromatography). Type of data set: in vitro ADME. The settings on record: 0.2 mg./ml., pH 6.5-7.0 buffer or serum.
A further data set concerns Sal. enteritidis A9531. The data set is described as follows: Antibiotic activity in nutrient broth (MIC), Sal. enteritidis. Format: cell-based. The settings on record: Salmonella enterica, 10^-4 dilution, Ex. 1/Ex. 2 figures recalculated on penicillin content.
From the text: as §1, §2, §3, §4, §5, §6

In the next data set the test system is Ent. cloacae A9659. The data set can be described thus: Antibiotic activity in nutrient broth (MIC), Ent. cloacae A9659. Format: cell-based. Particulars: Enterobacter cloacae, 10^-4 dilution, Ex. 1/Ex. 2 figures recalculated on penicillin content.
A further data set is described as follows: Hygroscopicity. The settings on record: solid product. Type of data set: physicochemical.
A further data set relates to Ser. marcescens A20019. The data set can be described thus: Antibiotic activity in nutrient broth (MIC), Ser. marcescens. Type of data set: cell-based. The settings on record: Serratia marcescens, 10^-4 dilution, Ex. 1/Ex. 2 figures recalculated on penicillin content.
From the text: as §1, §2, §3, §4, §5, §6

A further data set concerns E. coli Juhl A15119. The data set can be described thus: Antibiotic activity in nutrient broth (MIC), E. coli Juhl. Type of data set: cell-based. The settings on record: Escherichia coli, JUHLA15119, 10^-4 dilution, Ex. 1/Ex. 2 figures recalculated on penicillin content.
From the text: as §1, §2, §3, §4, §5, §6

The subject of another data set is Pr. morganii A15153. The data set can be described thus: Antibiotic activity in nutrient broth (MIC), Pr. morganii. Type of data set: cell-based. Particulars: Morganella morganii, 10^-4 dilution, Ex. 1/Ex. 2 figures recalculated on penicillin content.
The nature of data set [5]: Oral and intramuscular rat blood levels. Type of data set: in vivo.
The test system of another data set is S. aureus Smith A9537. The data set can be described thus: Antibiotic activity in nutrient broth (MIC), S. aureus Smith. Type of data set: cell-based. Particulars: Staphylococcus aureus, 10^-4 dilution, Ex. 1/Ex. 2 figures recalculated on penicillin content.
From the text: as §1, §2, §3, §4, §5, §6

A short description of another data set: Bioassay. Particulars: theory 730 (Ex. 1) / 596 (Ex. 2) mcg./mg.
In the next data set the test system is Pr. mirabilis A9900. The data set can be described thus: Antibiotic activity in nutrient broth (MIC), Pr. mirabilis. Type of data set: cell-based. The settings on record: Proteus mirabilis, 10^-4 dilution, Ex. 1/Ex. 2 figures recalculated on penicillin content.
From the text: as §1, §2, §3, §4, §5, §6

Data set [6] in a line: Stability of reconstituted aqueous solution. Format: physicochemical. The settings on record: 250 mg./ml. of activity.
The test system of a further data set is K. pneumoniae A15130. The data set can be described thus: Antibiotic activity in nutrient broth (MIC), K. pneumoniae A15130. Type of data set: cell-based. The settings on record: Klebsiella pneumoniae, nutrient broth, 10^-4 dilution, Ex. 1/Ex. 2 figures recalculated on penicillin content, read-out: MIC.
In a further data set the test system is Str. pyogenes A9604. The data set is described as follows: Antibiotic activity in nutrient broth (MIC), Str. pyogenes. Type of data set: cell-based. The settings on record: Streptococcus pyogenes, 45% AAB + 5% serum + 50% broth, 10^-3 dilution of overnight culture, Ex. 1/Ex. 2 figures recalculated on penicillin content.
From the text: as §1, §7, §2, §3, §4, §5, §6

Data set [7] is described as follows: In vitro antibacterial spectrum / activity. Format: cell-based. Particulars: vs amoxicillin (Ex. 1) or ampicillin (Ex. 2).
For data set [8] the following is noted: prior-art salt; cited from earlier work.
For data set [9] the following is noted: room temperature, reconstituted at 250 mg./ml.; cited from earlier work.
For data set [10] the following is noted: in vivo, iv; cited from earlier work.

As to `CC1(C)S[C@@H]2[C@H](N3C(=O)[C@@H](c4ccccc4)NC3c3ccc(S(=O)(=O)O)o3)C(=O)N2[C@H]1C(=O)O` (mixture of isomers) [Example 2, Disodium 6-[D(-)2-(±)5-Sulfo-2-furyl-5-oxo-4-phenyl-1-imidazolidinyl]penicillanate], the minimal inhibitory concentration (MIC) was 16 µg/mL in the data set with E. coli A9675; 0.5 µg/mL in the data set on K. pneumoniae A9977; more than 125 µg/mL in data set [2]; 0.004 µg/mL in the data set with Str. pneumoniae A9585; 32 µg/mL in the data set on Ent. cloacae A9657; more than 125 µg/mL with Ent. cloacae A9656. The minimum inhibitory concentration (MIC) in the data set on S. aureus bx 1633 A9606 (10^-2 dilution) is more than 125 µg/mL; with S. aureus bx 1633 A9606 (Staphylococcus aureus, BX1633A9606, 10^-3 dilution, read-out: MIC), more than 125 µg/mL; against Ps. aeruginosa A9843A, more than 125 µg/mL; in the data set with Sal. enteritidis A9531, 0.013 µg/mL; with Ent. cloacae A9659, 63 µg/mL; in the data set with Ser. marcescens A20019 it was 32 µg/mL. The minimal inhibitory concentration (MIC) is 2 µg/mL with E. coli Juhl A15119; more than 125 µg/mL in the data set on Pr. morganii A15153; 0.06 µg/mL in the data set with S. aureus Smith A9537 (SMITHA9537, +50% serum); 0.06 µg/mL in the data set on S. aureus Smith A9537 (SMITHA9537, nutrient broth, no serum); 0.13 µg/mL with Pr. mirabilis A9900; 63 µg/mL in the data set on K. pneumoniae A15130. In addition, the minimum inhibitory concentration (MIC) in the data set on Str. pyogenes A9604 was 0.004 µg/mL. In addition, the Mouse blood level in data set [1] (0.25 hours) turned out to be 6.3 µg/mL; in [1] (0.5 hours), 3.7 µg/mL; in [1] (1 hour) it was 1.3 µg/mL; in data set [1] (1.5 hours), 0.6 µg/mL. Besides, the Blood level was 2.8 and 5.2 in data set [3] (1 hour); 1.4 and 2.2 in data set [3] (2 hours); 0.4 and 0.6 in [3] (3.5 hours). For the same molecule, the “hydrolysis in water to parent penicillin” value in [4] (room temperature and 37° C.) is on record as “rapidly hydrolyzes in water”. Also, in [4] (to ampicillin, 0 time), the “hydrolyzed at 0 time by liquid chromatography” value is 60-70%. Further, the hygroscopicity entry in “Hygroscopicity” was “non-hygroscopic”. Moreover, the “Intramuscular rat blood levels compared with parent penicillin” value in data set [5] (intramuscular) is recorded as “substantially equal to those of ampicillin”. Besides, the “Oral rat blood levels compared with parent penicillin” value in data set [5] (oral) is listed as “substantially equal to those of ampicillin”. In “Bioassay”, this molecule gave a Bioassay of 578 µg/mg. Also, in [6], the “stable at room temperature (reconstituted aqueous solution)” value is “at least 24 hours”. Besides, in data set [7], the “in vitro antibacterial spectrum compared with parent penicillin” value is reported as “substantially equivalent to that of ampicillin”.

As for `CC1(C)S[C@@H]2[C@H](NC(=O)[C@H](N)c3ccccc3)C(=O)N2[C@H]1C(=O)O` [sodium salt of ampicillin], the hygroscopicity entry in data set [8] was “hygroscopic”. Also, the “shelf-life of aqueous solution” value in data set [9] is “about one”. In addition, the irritation on injection entry in data set [10] is “somewhat irritating on injection”.

The MIC is the lowest concentration found to suppress growth.
